Laboratory results: patent publication US10941157B2, “Pesticidal compositions and uses thereof” (Gilead Apollo, LLC, priority 2015, dated 2021)
Converted amounts (≈) assume the structure as drawn. Where two headings read alike, the source gives them in different places. Blank lines part the entries; values can stand above or below the compound they belong to.

Key:
Type in all cases: cell-based
[1] = test system: Botrtyis cinerea (Bc); test: In vitro pathogen growth inhibition assay, Bc; conditions: 48 h
Procedure, shortened: (§1)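 Value reported is the compound concentration reaching ≥90% growth inhibition, from OD readings at 24 and 48 h after blank subtraction, confirmed visually. Inoculum was spores diluted in 17% V8 medium, except Rs, using 1.5 mm mycelial plugs in ¼ PDB; actual compound concentration corrected via OD600.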

[2] = test system: Collectotrichum graminicola (Cg); test: In vitro pathogen growth inhibition assay, Cg; conditions: 48 h
Procedure, shortened: as §1

[3] = test system: Diplodia maydis (Dm); test: In vitro pathogen growth inhibition assay, Dm; conditions: Stenocarpella maydis, 48 h
Procedure, shortened: (§2)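 Spores in 17% V8 liquid medium, or 1.5 mm Rs mycelial plugs in ¼ PDB, incubated with compound; final concentration checked by OD600 for precipitation. OD readings at 24 and 48 h, blank-subtracted, plus visual ratings; value is concentration giving ≥90% growth inhibition.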

[4] = test system: Fusarium moniliforme (Fm); test: In vitro pathogen growth inhibition assay, Fm; conditions: Fusarium verticillioides
Procedure, shortened: as §1

[5] = test system: Fusarium virguliforme (Fv); test: In vitro pathogen growth inhibition assay, Fv
Procedure, shortened: as §2

[6] = test system: Phytophthora capsici (Pc); test: In vitro pathogen growth inhibition assay, Pc; conditions: 48 h
Procedure, shortened: as §2

[7] = test system: Rhizoctonia solani (Rs); test: In vitro pathogen growth inhibition assay, Rs (mycelial plugs); conditions: Rhizoctonia solani, 48 h
Procedure, shortened: as §2

[8] = test system: Septoria tritici (St); test: In vitro pathogen growth inhibition assay, St; conditions: Zymoseptoria tritici, 48 h
Procedure, shortened: as §1

[9] = ≥90% growth inhibition, 48 hours, vs 2% DMSO control, read-out: Compound Concentration (ppm) sufficient for ≥90% inhibition of Bc
[10] = ≥90% growth inhibition, 48 hours, vs 2% DMSO control, read-out: Compound Concentration (ppm) sufficient for ≥90% inhibition of Cg
[11] = ≥90% growth inhibition, 48 hours, vs 2% DMSO control, read-out: Compound Concentration (ppm) sufficient for ≥90% inhibition of Dm
[12] = ≥90% growth inhibition, 48 hours, vs 2% DMSO control, read-out: Compound Concentration (ppm) sufficient for ≥90% inhibition of Fm
[13] = ≥90% growth inhibition, 48 hours, vs 2% DMSO control, read-out: Compound Concentration (ppm) sufficient for ≥90% inhibition of Fv
[14] = ≥90% growth inhibition, 48 hours, vs 2% DMSO control, read-out: Compound Concentration (ppm) sufficient for ≥90% inhibition of Pc
[15] = ≥90% growth inhibition, mycelial plugs, 48 hours, vs 2% DMSO control, read-out: Compound Concentration (ppm) sufficient for ≥90% inhibition of Rs
[16] = ≥90% growth inhibition, 48 hours, vs 2% DMSO control, read-out: Compound Concentration (ppm) sufficient for ≥90% inhibition of St
[17] = ≥90% inhibition, 48 hours vs 2% DMSO control, read-out: Compound Concentration (ppm) sufficient for ≥90% inhibition of growth, Bc
[18] = ≥90% inhibition, 48 hours vs 2% DMSO control, read-out: Compound Concentration (ppm) sufficient for ≥90% inhibition of growth, Cg
[19] = ≥90% inhibition, 48 hours vs 2% DMSO control, read-out: Compound Concentration (ppm) sufficient for ≥90% inhibition of growth, Dm
[20] = ≥90% inhibition, 48 hours vs 2% DMSO control, read-out: Compound Concentration (ppm) sufficient for ≥90% inhibition of growth, Fm
[21] = ≥90% inhibition, 48 hours vs 2% DMSO control, read-out: Compound Concentration (ppm) sufficient for ≥90% inhibition of growth, Fv
[22] = ≥90% inhibition, 48 hours vs 2% DMSO control, read-out: Compound Concentration (ppm) sufficient for ≥90% inhibition of growth, Pc
[23] = ≥90% inhibition, mycelial plugs, 48 hours vs 2% DMSO control, read-out: Compound Concentration (ppm) sufficient for ≥90% inhibition of growth, Rs
[24] = ≥90% inhibition, 48 hours vs 2% DMSO control, read-out: Compound Concentration (ppm) sufficient for ≥90% inhibition of growth, St
[25] = concentration sufficient to ≥90% inhibition of growth, 48 hours vs 2% DMSO control, read-out: Compound Concentration (ppm) for ≥90% inhibition, Bc
[26] = concentration sufficient to ≥90% inhibition of growth, 48 hours vs 2% DMSO control, read-out: Compound Concentration (ppm) for ≥90% inhibition, Cg
[27] = concentration sufficient to ≥90% inhibition of growth, 48 hours vs 2% DMSO control, read-out: Compound Concentration (ppm) for ≥90% inhibition, Dm
[28] = concentration sufficient to ≥90% inhibition of growth, 48 hours vs 2% DMSO control, read-out: Compound Concentration (ppm) for ≥90% inhibition, Fm
[29] = concentration sufficient to ≥90% inhibition of growth, 48 hours vs 2% DMSO control, read-out: Compound Concentration (ppm) for ≥90% inhibition, Fv
[30] = concentration sufficient to ≥90% inhibition of growth, 48 hours vs 2% DMSO control, read-out: Compound Concentration (ppm) for ≥90% inhibition, Pc
[31] = concentration sufficient to ≥90% inhibition of growth, 48 hours vs 2% DMSO control, read-out: Compound Concentration (ppm) for ≥90% inhibition, Rs
[32] = concentration sufficient to ≥90% inhibition of growth, 48 hours vs 2% DMSO control, read-out: Compound Concentration (ppm) for ≥90% inhibition, St

IC90 [1, 9]: 2 µg/mL (≈ 3.26 µM)
IC90 [2, 10]: 2 µg/mL (≈ 3.26 µM)
IC90 [3, 11]: 2 µg/mL (≈ 3.26 µM)
IC90 [4, 12]: 0.08 µg/mL (≈ 0.131 µM)
IC90 [5, 13]: 0.4 µg/mL (≈ 0.653 µM)
IC90 [6, 14]: 50 µg/mL (≈ 81.6 µM)
IC90 [7, 15]: 0.08 µg/mL (≈ 0.131 µM)
IC90 [8, 16]: ≥ 50 µg/mL
SMILES: CCc1ccc(F)cc1[C@H](Cn1c(=O)n(C(C)(C)C(=O)NC(C)C)c(=O)c2c(C)c(-n3nccn3)sc21)O[C@H]1C[C@@H](O)C1 [Compound I-280]

IC90 [1, 9]: 10 µg/mL (≈ 16.7 µM)
IC90 [2, 10]: ≥ 50 µg/mL
IC90 [3, 11]: 50 µg/mL (≈ 83.7 µM)
IC90 [4, 12]: ≥ 2 µg/mL
IC90 [5, 13]: > 50 µg/mL
IC90 [6, 14]: > 50 µg/mL
IC90 [7, 15]: 50 µg/mL (≈ 83.7 µM)
IC90 [8, 16]: > 50 µg/mL
SMILES: COc1ccc(F)cc1[C@H](Cn1c(=O)n(C(C)(C)C(N)=O)c(=O)c2c(C)c(-n3cccn3)sc21)OC1CCC(=O)CC1 [Compound I-170]

IC90 [1, 25]: 10 µg/mL (≈ 18.5 µM)
IC90 [2, 26]: 50 µg/mL (≈ 92.3 µM)
IC90 [3, 27]: 50 µg/mL (≈ 92.3 µM)
IC90 [4, 28]: 10 µg/mL (≈ 18.5 µM)
IC90 [5, 29]: 10 µg/mL (≈ 18.5 µM)
IC90 [6, 30]: > 50 µg/mL
IC90 [7, 31]: 50 µg/mL (≈ 92.3 µM)
IC90 [8, 32]: > 50 µg/mL
SMILES: COc1ccc(F)cc1[C@H](Cn1c(=O)n([C@@H](C)C(N)=O)c(=O)c2c(C)c(-n3nccn3)sc21)OCCC#N [Compound I-199]

IC90 [1, 25]: 50 µg/mL (≈ 83.7 µM)
IC90 [2, 26]: 50 µg/mL (≈ 83.7 µM)
IC90 [3, 27]: > 50 µg/mL
IC90 [4, 28]: 10 µg/mL (≈ 16.7 µM)
IC90 [5, 29]: ≥ 10 µg/mL
IC90 [6, 30]: > 50 µg/mL
IC90 [7, 31]: > 50 µg/mL
IC90 [8, 32]: > 50 µg/mL
SMILES: COc1ccc(F)cc1[C@H](Cn1c(=O)n(C(C)(C)C(=O)NC(C)C)c(=O)c2c(C)c(-n3cncn3)sc21)OCCC#N [Compound I-317]

IC90 [1, 9]: 0.4 µg/mL (≈ 0.696 µM)
IC90 [2, 10]: 0.08 µg/mL (≈ 0.139 µM)
IC90 [3, 11]: 0.4 µg/mL (≈ 0.696 µM)
IC90 [4, 12]: 0.08 µg/mL (≈ 0.139 µM)
IC90 [5, 13]: 0.4 µg/mL (≈ 0.696 µM)
IC90 [6, 14]: 2 µg/mL (≈ 3.48 µM)
IC90 [7, 15]: 0.08 µg/mL (≈ 0.139 µM)
IC90 [8, 16]: > 50 µg/mL
SMILES: COc1ccc(F)cc1[C@@](O)(CO)Cn1c(=O)n(C(C)(C)C(=O)NC(C)C)c(=O)c2c(C)c(-n3nccn3)sc21 [Compound I-315]

IC90 [1, 9]: 10 µg/mL (≈ 19 µM)
IC90 [2, 10]: 50 µg/mL (≈ 94.8 µM)
IC90 [3, 11]: 50 µg/mL (≈ 94.8 µM)
IC90 [4, 12]: 2 µg/mL (≈ 3.79 µM)
IC90 [5, 13]: 2 µg/mL (≈ 3.79 µM)
IC90 [6, 14]: > 50 µg/mL
IC90 [7, 15]: 50 µg/mL (≈ 94.8 µM)
IC90 [8, 16]: > 50 µg/mL
SMILES: COc1ccc(F)cc1CCn1c(=O)n(C(C)(C)C(=O)NC(C)C)c(=O)c2c(C)c(-n3cccn3)sc21 [Compound I-329]

Continued, compound first:

SMILES: COc1ccccc1[C@H](Cn1c(=O)n(C(C)(C)C(=O)NC(C)C)c(=O)c2c(C)c(-n3cccn3)sc21)OC1CCOCC1 [Compound I-157]
IC90 [1, 17]: 10 µg/mL (≈ 16.4 µM)
IC90 [2, 18]: ≥ 10 µg/mL
IC90 [3, 19]: 10 µg/mL (≈ 16.4 µM)
IC90 [4, 20]: 2 µg/mL (≈ 3.28 µM)
IC90 [5, 21]: ≥ 10 µg/mL
IC90 [6, 22]: > 50 µg/mL
IC90 [7, 23]: 50 µg/mL (≈ 82 µM)
IC90 [8, 24]: ≥ 50 µg/mL

SMILES: COc1ccc(F)cc1[C@H](Cn1c(=O)n(C(C)(C)C(=O)N2CCCC2)c(=O)c2c(C)c(-n3nccn3)sc21)OCC(C)C [Compound I-028]
IC90 [1, 17]: 0.4 µg/mL (≈ 0.653 µM)
IC90 [2, 18]: 0.08 µg/mL (≈ 0.131 µM)
IC90 [3, 19]: ≥ 0.08 µg/mL
IC90 [4, 20]: 0.08 µg/mL (≈ 0.131 µM)
IC90 [5, 21]: 0.4 µg/mL (≈ 0.653 µM)
IC90 [6, 22]: > 50 µg/mL
IC90 [7, 23]: 0.08 µg/mL (≈ 0.131 µM)
IC90 [8, 24]: ≥ 2 µg/mL

SMILES: COCCO[C@@H](Cn1c(=O)n(C(C)(C)C(=O)N2CCCC2)c(=O)c2c(C)c(-n3nccn3)sc21)c1cc(F)ccc1OC [Compound I-164]
IC90 [1, 9]: 50 µg/mL (≈ 81.3 µM)
IC90 [2, 10]: 10 µg/mL (≈ 16.3 µM)
IC90 [3, 11]: 10 µg/mL (≈ 16.3 µM)
IC90 [4, 12]: 2 µg/mL (≈ 3.25 µM)
IC90 [5, 13]: 2 µg/mL (≈ 3.25 µM)
IC90 [6, 14]: > 50 µg/mL
IC90 [7, 15]: 50 µg/mL (≈ 81.3 µM)
IC90 [8, 16]: > 50 µg/mL

SMILES: COc1ccc(F)cc1[C@H](Cn1c(=O)n(C(C)(C)C(=O)NC2CC2)c(=O)c2c(C)c(-n3nccn3)sc21)OC(C)C [Compound I-078]
IC90 [1, 17]: 2 µg/mL (≈ 3.42 µM)
IC90 [2, 18]: 2 µg/mL (≈ 3.42 µM)
IC90 [3, 19]: 2 µg/mL (≈ 3.42 µM)
IC90 [4, 20]: 0.08 µg/mL (≈ 0.137 µM)
IC90 [5, 21]: 0.4 µg/mL (≈ 0.684 µM)
IC90 [6, 22]: > 50 µg/mL
IC90 [7, 23]: 0.4 µg/mL (≈ 0.684 µM)
IC90 [8, 24]: > 50 µg/mL
